Results: ChEMBL document CHEMBL1138862 (J Med Chem, 2006)
≈ marks a conversion by molar mass, not a printed value.

Legend:
Escherichia coli [1] = assay: Antibacterial activity against Escherichia coli W3110; assay type: functional
Escherichia coli [2] = assay: Antibacterial activity against Escherichia coli pTMV19 in presence of mevalonate; assay type: functional
[3] = target: T1, Farnesyl diphosphate synthase (Escherichia coli K-12, UniProt P22939); assay: Inhibition of Escherichia coli FPPS
T1 sequence (P22939 whole entry): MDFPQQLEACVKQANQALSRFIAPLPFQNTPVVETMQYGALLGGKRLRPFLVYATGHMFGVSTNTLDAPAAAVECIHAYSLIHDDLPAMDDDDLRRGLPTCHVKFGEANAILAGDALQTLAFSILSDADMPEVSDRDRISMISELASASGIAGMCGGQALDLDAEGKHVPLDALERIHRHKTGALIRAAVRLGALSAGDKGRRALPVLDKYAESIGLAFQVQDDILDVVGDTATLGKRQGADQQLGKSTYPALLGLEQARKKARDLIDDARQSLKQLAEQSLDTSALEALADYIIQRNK

Escherichia coli [4] = assay: Antibacterial activity against Escherichia coli pTMV19; assay type: functional
Escherichia coli [5] = assay: Ratio, MIC/MBC for Escherichia coli K12 in presence of fosmidomycin; assay type: functional
Escherichia coli [6] = assay: Antibacterial activity against Escherichia coli K12 in presence of fosmidomycin; assay type: functional
[7] = Inhibition of Trypanosoma brucei FPPS expressed in Escherichia coli
Escherichia coli [8] = assay: Antibacterial activity against Escherichia coli K12 by broth microdilution method; assay type: functional, organism-based
Escherichia coli [9] = assay: Ratio, MIC/MBC for Escherichia coli K12; assay type: functional
[10] = target: T2, 1-deoxy-D-xylulose 5-phosphate reductoisomerase (Escherichia coli K-12, UniProt P45568); assay: Inhibition of Escherichia coli DXR
T2 sequence (P45568 whole entry): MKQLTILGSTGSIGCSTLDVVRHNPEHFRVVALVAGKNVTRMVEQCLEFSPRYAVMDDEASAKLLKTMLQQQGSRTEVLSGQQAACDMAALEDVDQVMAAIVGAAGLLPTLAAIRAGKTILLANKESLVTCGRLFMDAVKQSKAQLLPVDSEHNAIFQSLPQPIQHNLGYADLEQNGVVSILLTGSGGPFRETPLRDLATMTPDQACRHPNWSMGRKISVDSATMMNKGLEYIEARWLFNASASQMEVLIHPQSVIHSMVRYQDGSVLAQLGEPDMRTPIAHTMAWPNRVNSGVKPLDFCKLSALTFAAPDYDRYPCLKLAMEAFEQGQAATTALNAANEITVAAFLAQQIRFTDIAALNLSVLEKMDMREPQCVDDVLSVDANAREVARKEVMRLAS

Escherichia coli [11] = assay: Antibacterial activity against Escherichia coli K12; assay type: functional

SMILES | inhibition zone (IZ) (Escherichia coli [1]) [mm] | inhibition zone (IZ) (Escherichia coli [2]) [mm] | inhibition zone (IZ) (Escherichia coli [4]) [mm] | further results
O=P(O)(O)C(O)(Cn1cnc2ccccc21)P(=O)(O)O | 14 | 13 | 0 | IC50 [3]: 700 nM
CCn1c2ccccc2c2cc(NC(P(=O)(O)O)P(=O)(O)O)ccc21 | 0 | 0 | 0 | 
CCCCCCCCCCC(O)(P(=O)(O)O)P(=O)(O)O | 0 | 0 | 0 | 
O=P(O)(O)C(O)(Cc1c[nH]cn1)P(=O)(O)O | 0 | 0 | 0 | 
Cc1ccnc(N(Cc2ccccc2)C(P(=O)(O)O)P(=O)(O)O)c1 | 0 | 0 | 0 | 
CCCCCCCc1ccc(NC(P(=O)(O)O)P(=O)(O)O)cc1 | 0 | 0 | 0 | 
Cc1cc(C)nc(NC(P(=O)(O)O)P(=O)(O)O)c1 | 11 | 0 | 7 | 
CCCCCCCCCC(O)(P(=O)(O)O)P(=O)(O)O | 9 | 0 | 0 | 
O=P(O)(O)CC(c1ccccn1)P(=O)(O)O (stereo not given) | 0 | 0 | 0 | 
CCCCCCC(CCCC)C(O)(P(=O)(O)O)P(=O)(O)O (stereo not given) | 0 | 0 | 0 | 
CCCCCCc1ccc(NC(P(=O)(O)O)P(=O)(O)O)cc1 | 0 | 0 | 0 | 
O=P(O)(O)C(Nc1cccc(-c2ccccc2)c1)P(=O)(O)O | 8 | 0 | 8 | 
Cc1cccc(NC(P(=O)(O)O)P(=O)(O)O)n1 | 7 | 8 | 10 | 
CN(CCCCc1ccccc1)CCC(O)(P(=O)(O)O)P(=O)(O)O | 19 | 17 | 18 | Ratio (Escherichia coli [5]): 0.5; MBC (Escherichia coli [6]): 625 µM; MIC (Escherichia coli [6]): 312 µM; IC50 [3]: 1300 nM; IC50 [7]: 444000 nM; IC50 (Escherichia coli [8]): 33000 nM; Ratio (Escherichia coli [9]): 0.13; IC50 [10]: 245000 nM; MBC (Escherichia coli [11]): 1250 µM (≈ 477 µg/mL); MIC (Escherichia coli [11]): 156 µM (≈ 59.5 µg/mL)
O=P(O)(O)C(Nc1cc(Cl)cc(Cl)c1)P(=O)(O)O [(3,5-DICHLOROPHENYLAMINO)METHYLENEDIPHOSPHONIC ACID] | 0 | 8 | 10 | 
O=P(O)(O)C(NC1CCCCC1)P(=O)(O)O [(CYCLOHEXYLAMINO)METHYLENEDIPHOSPHONIC ACID] | 7 | 9 | 8 | 
O=P(O)(O)C(NC1CCCCCCC1)P(=O)(O)O [(CYCLOOCTYLAMINO)METHYLENEDIPHOSPHONIC ACID] | 7 | 0 | 8 | 
CC1(C)S[C@@H]2[C@H](NC(=O)C(C(=O)O)c3ccccc3)C(=O)N2[C@H]1C(=O)O (stereo not given in full) [CARBENICILLIN] |  |  |  | Ratio (Escherichia coli [9]): 1; MBC (Escherichia coli [11]): 20 µM (≈ 7.57 µg/mL); MIC (Escherichia coli [11]): 20 µM (≈ 7.57 µg/mL)
O=C(N[C@H](CO)[C@H](O)c1ccc([N+](=O)[O-])cc1)C(Cl)Cl [CHLORAMPHENICOL] | 24 | 19 | 20 | 
O=C(O)c1cn(C2CC2)c2cc(N3CCNCC3)c(F)cc2c1=O [CIPROFLOXACIN] |  |  |  | Ratio (Escherichia coli [9]): 0.5; MBC (Escherichia coli [11]): 0.076 µM (≈ 0.0252 µg/mL); MIC (Escherichia coli [11]): 0.038 µM (≈ 0.0126 µg/mL)
O=CN(O)CCCP(=O)(O)O [FOSMIDOMYCIN] | 20 | 0 | 19 | IC50 [7]: 200 nM; IC50 (Escherichia coli [8]): 220 nM; MBC (Escherichia coli [11]): 2500 µM (≈ 458 µg/mL); MIC (Escherichia coli [11]): 312 µM (≈ 57.1 µg/mL)
NC[C@@H]1O[C@H](O[C@H]2[C@@H](O)[C@H](O[C@@H]3[C@@H](O)[C@H](N)C[C@H](N)[C@H]3O[C@H]3O[C@H](CN)[C@@H](O)[C@H](O)[C@H]3N)O[C@@H]2CO)[C@H](N)[C@@H](O)[C@@H]1O [FRAMYCETIN] | 15 | 12 | 18 | 
NC[C@H]1O[C@H](O[C@H]2[C@H](O)[C@@H](O[C@H]3O[C@H](CO)[C@@H](O)[C@H](N)[C@H]3O)[C@H](N)C[C@@H]2N)[C@H](O)[C@@H](O)[C@@H]1O [KANAMYCIN] | 21 | 17 | 22 | 
O=P(O)(O)C(O)(Cc1cnc2ccccn12)P(=O)(O)O [MINODRONIC ACID] | 10 | 0 | 0 | IC50 [3]: 1100 nM
O=P(O)(O)C(N1CCCCCC1)P(=O)(O)O [N-(HEXAMETHYLENEIMINO)METHYLENEBISPHOSPHONIC ACID] | 0 | 0 | 0 | 
CO[C@@H]1[C@@H](OC(N)=O)[C@@H](O)[C@H](Oc2ccc3c(O)c(NC(=O)c4ccc(O)c(CC=C(C)C)c4)c(=O)oc3c2C)OC1(C)C [NOVOBIOCIN] | 9 | 15 | 9 | 
CN[C@@H]1[C@H](O[C@H]2[C@H](O[C@H]3[C@H](O)[C@@H](O)[C@H](N=C(N)N)[C@@H](O)[C@@H]3N=C(N)N)O[C@@H](C)[C@]2(O)C=O)O[C@@H](CO)[C@H](O)[C@H]1O [STREPTOMYCIN] | 15 | 7 | 16 | 
CN(C)[C@@H]1C(O)=C(C(N)=O)C(=O)[C@@]2(O)C(O)=C3C(=O)c4c(O)cccc4[C@@](C)(O)[C@H]3C[C@@H]12 [TETRACYCLINE] | 21 | 22 | 21 | 
